# Source: patent US8829007B2 (priority 2009, dated 2014)
# Like-named read-outs stand apart in the source and are kept apart here.
# How the values were obtained:
# [1] = tested on: influenza A virus (A/PR/8/34); assay: microbe, parasite or virus in culture; assay type: cell-based
# [2] = tested on: A/PR/8/34 influenza virus; assay: microbe, parasite or virus in culture; assay type: cell-based
# influenza [3] = assay: In vivo prophylaxis study (FIG. 1), survival of infected mice; set-up: species or system Balb/c mice; details: 100 mg/kg oral gavage, first dose 2 hours prior to infection, twice daily for 5 days, survival monitored 21 days, P<0.0001 vs vehicle
# influenza [4] = assay: Influenza Therapeutic Mouse Model (Table 6); assay type: in vivo, mice; details: dosing @ 48 hours post infection with 30 mg/kg BID X 10 days
# influenza [5] = assay: In vivo treatment study (FIG. 2), survival of infected mice; set-up: species or system Balb/c mice; details: 200 mg/kg oral gavage from 24 hours post infection, twice daily for 10 days, survival monitored 21 days, P<0.0001 vs vehicle
# [6] = Influenza A virus, PR/8, MDCK, MDCK cells infected with A/PR/8/34, survival of infected cells, class symbols, read-out: IC50 (mean all)
# [7] = Influenza A virus, PR/8, MDCK, MDCK cells infected with A/PR/8/34, replication of influenza virus (viral RNA, bDNA), class symbols, read-out: EC50 (mean all)
# [8] = Influenza A virus, PR/8, MDCK, mean all, survival of A/PR/8/34 infected MDCK cells (CPE assay), read-out: IC50
# [9] = Influenza A virus, PR/8, mean all, replication of A/PR/8/34 influenza virus (bDNA assay), read-out: EC50
# [10] = Influenza A virus, PR/8, MDCK, MDCK cells, A/PR/8/34, ATP readout, mean all, read-out: Cell Flu, MDCK protection, ATP (All: IC50: uM)(Mean (All))
# [11] = Influenza A virus, PR/8, 30 h, HA(−) 30 hr, A/PR/8, bDNA, mean all, read-out: Cell Influenza HA(−) 30 hr A/PR/8 bDNA:bDNA EC50 uM(Mean (All))
# [12] = mean all, A/PR/8/34 influenza virus in MDCK cells, bDNA assay, read-out: EC50
molecule,measurement,setting,value
"COC(=O)N[C@H]1CCC[C@@H](Nc2nc(-c3c[nH]c4ncc(Cl)cc34)ncc2F)C1 (relative stereo) [Compound 514, Methyl-cis-3-[[2-(5-chloro-1H-pyrrolo[2,3-b]pyridin-3-yl)-5-fluoro-pyrimidin-4-yl]amino]cyclohexylcarbamate]",IC50,[1]; [6],< 5 µM
same,EC50,[2]; [7],< 5 µM
same,survival,influenza [3],complete survival
"C[C@H]1NC(=O)O[C@]12CCC[C@H](Nc1nc(-c3c[nH]c4ncc(F)cc34)ncc1F)C2 (single isomer, unassigned) [Compound 967]",IC50,[1]; [8],< 5 µM
same,EC50,[2]; [9],< 5 µM
same,Percent Survival,influenza [4],75%
same,Percent Weight Loss (Day 8),influenza [4],30.9%
OC[C@H](O)CN1CCCC(Nc2nc(-c3c[nH]c4ncc(Cl)cc34)ncc2F)C1 (some centres unmarked) [Compound 588],IC50,[1]; [6],< 5 µM
same,EC50,[2]; [7],< 5 µM
same,survival,influenza [5],complete survival
"O=C(N[C@@H]1CCC[C@H](Nc2nc(-c3c[nH]c4ncc(F)cc34)ncc2F)C1)N1CCOCC1 [Compound 706, N-[(1R,3S)-3-[[5-fluoro-2-(5-fluoro-1H-pyrrolo[2,3-b]pyridin-3-yl)pyrimidin-4-yl]amino]cyclohexyl]morpholine-4-carboxamide]",IC50,"[1]; Influenza A virus, PR/8, MDCK, mean all, MDCK cells infected with A/PR/8/34, cell protection (CPE), read-out: IC50",< 5 µM
same,EC50,"[2]; Influenza A virus, PR/8, MDCK, mean all, bDNA viral RNA in MDCK cells infected with A/PR/8/34, read-out: EC50",< 5 µM
same,Percent Survival,influenza [4],75%
same,Percent Weight Loss (Day 8),influenza [4],27.0%
"O=C(N[C@@H]1CCC[C@H](Nc2nc(-c3c[nH]c4ncc(F)cc34)ncc2F)C1)N1CCCC1 [Compound 895, N-((1R,3S)-3-(5-fluoro-2-(5-fluoro-1H-pyrrolo[2,3-b]pyridin-3-yl)-pyrimidin-4-ylamino)cyclohexyl)pyrrolidine-1-carboxamide]",IC50,"[1]; Influenza A virus, PR/8, MDCK, exemplary values in text, survival of A/PR/8/34 infected cells, read-out: IC50",0.0008 µM
same,IC50,[1]; [8],< 5 µM
same,EC50,"[2]; Influenza A virus, PR/8, exemplary values in text, replication of A/PR/8/34 influenza virus, read-out: EC50",0.001 µM
same,EC50,[2]; [9],< 5 µM
same,Percent Survival,influenza [4],100%
same,Percent Weight Loss (Day 8),influenza [4],12.8%
"COc1c(F)cnc2[nH]cc(-c3ncc(F)c(N[C@H]4CCC[C@@H](NC(=O)N5CC[C@@H](F)C5)C4)n3)c12 [Compound 1104, (R)-3-fluoro-N-((1R,3S)-3-((5-fluoro-2-(5-fluoro-4-methoxy-1H-pyrrolo[2,3-b]pyridin-3-yl)pyrimidin-4-yl)amino)cyclohexyl)pyrrolidine-1-carboxamide]",IC50,[1]; [10],< 5 µM
same,EC50,[2]; [11],< 5 µM
"N=C(N)N[C@@H]1CCC[C@H](Nc2nc(-c3c[nH]c4ncc(F)cc34)ncc2F)C1 [Compound 1143, 1-((1R,3S)-3-(5-fluoro-2-(5-fluoro-1H-pyrrolo[2,3-b]pyridin-3-yl)pyrimidin-4-ylamino)cyclohexyl)guanidine]",IC50,[1]; [10],< 5 µM
same,EC50,[2]; [11],< 5 µM
"O=C(O)c1coc(N[C@@H]2CCC[C@H](Nc3nc(-c4c[nH]c5ncc(F)cc45)ncc3F)C2)n1 [Compound 1144, 2-((1R,3S)-3-(5-fluoro-2-(5-fluoro-1H-pyrrolo[2,3-b]pyridin-3-yl)pyrimidin-4-ylamino)cyclohexylamino)oxazole-4-carboxylic acid]",IC50,[1]; [10],< 5 µM
same,EC50,[2]; [11],< 5 µM
"O=C(O[C@H]1CCC[C@@H](Nc2nc(-c3c[nH]c4ncc(F)cc34)ncc2F)C1)N1CC[C@H](F)C1 [Compound 1151, (S)-(1S,3R)-3-((5-fluoro-2-(5-fluoro-1H-pyrrolo[2,3-b]pyridin-3-yl)-pyrimidin-4-yl)amino)cyclohexyl 3-fluoropyrrolidine-1-carboxylate]",IC50,[1]; [10],< 5 µM
same,EC50,[2]; [11],< 5 µM
"O=C(O)[C@H]1C2CCC(CC2)[C@@H]1Nc1nc(-c2c[nH]c3ncc(Cl)cc23)ncc1F [Compound 1184, (2S,3S)-3-((2-(5-chloro-1H-pyrrolo[2,3-b]pyridin-3-yl)-5-fluoropyrimidin-4-yl)amino)bicyclo[2.2.2]octane-2-carboxylic acid]",IC50,[1]; [10],< 5 µM
same,EC50,[2]; [11],< 5 µM
C[C@H]1C[C@@H](NC(=O)N2CC[C@H](F)C2)C[C@@H](Nc2nc(-c3c[nH]c4ncc(F)cc34)ncc2F)C1 [compound 1067],IC50,[1]; [10],< 5 µM
same,EC50,[2]; [11],< 5 µM
"(1S,3R)—N1-(5-fluoro-2-(5-fluoro-1H-pyrrolo[2,3-b]pyridin-3-yl)pyrimidin-4-yl)-N3-(pyrazin-2-yl)cyclohexane-1,3-diamine [Compound 985]",IC50,"[1]; MDCK cells, A/PR/8/34, ATP readout, mean all, read-out: Cell Flu, MDCK protection, ATP (All: IC50: uM)(Mean (All))",< 5 µM
same,EC50,"[2]; HA(−) 30 hr, A/PR/8, bDNA, mean all, read-out: Cell Influenza HA(−) 30 hr A/PR/8 bDNA:bDNA EC50 uM(Mean (All))",< 5 µM
"(R)-methyl 2-(3-((2-(5-chloro-1H-pyrrolo[2,3-b]pyridin-3-yl)-5-fluoropyrimidin-4-ylamino)methyl)piperidine-1-carboxamido)ethanoate [Compound 125]",IC50,[1]; read-out: IC50 (mean all),< 5 µM
same,EC50,[2]; read-out: EC50 (mean all),< 5 µM
"(R)—N-((1-(3-bromophenylsulfonyl)piperidin-3-yl)methyl)-2-(5-chloro-1H-pyrrolo[2,3-b]pyridin-3-yl)-5-fluoropyrimidin-4-amine [Compound 88]",IC50,[1]; read-out: IC50 (mean all),< 5 µM
same,EC50,[2]; read-out: EC50 (mean all),< 5 µM
"(R)—N-cyclopropyl-2-((5-fluoro-2-(1H-pyrrolo[2,3-b]pyridin-3-yl)pyrimidin-4-ylamino)-methyl)piperidine-1-carboxamide [Compound 372]",IC50,[1]; read-out: IC50,5 to 20 µM
same,EC50,[2]; [12],5 to 10 µM
"(R)—N-tert-butyl-3-((2-(5-chloro-1H-pyrrolo[2,3-b]pyridin-3-yl)-5-fluoropyrimidin-4-ylamino)methyl)piperidine-1-carboxamide [Compound 117]",IC50,[1]; read-out: IC50 (mean all),< 5 µM
same,EC50,[2]; read-out: EC50 (mean all),< 5 µM
"N-[cis-2-[[5-fluoro-2-(1H-pyrrolo[2,3-b]pyridin-3-yl)pyrimidin-4-yl]amino]cyclohexyl]methanesulfonamide [Compound 337]",IC50,[1]; read-out: IC50,5 to 20 µM
same,EC50,[2]; [12],< 5 µM
